The assay addresses T1, human GnRH receptors (Homo sapiens, UniProt P30968).
T1 construct: expressed in transfected cells; host or cells: CHO-K1
T1 sequence (P30968 1-328): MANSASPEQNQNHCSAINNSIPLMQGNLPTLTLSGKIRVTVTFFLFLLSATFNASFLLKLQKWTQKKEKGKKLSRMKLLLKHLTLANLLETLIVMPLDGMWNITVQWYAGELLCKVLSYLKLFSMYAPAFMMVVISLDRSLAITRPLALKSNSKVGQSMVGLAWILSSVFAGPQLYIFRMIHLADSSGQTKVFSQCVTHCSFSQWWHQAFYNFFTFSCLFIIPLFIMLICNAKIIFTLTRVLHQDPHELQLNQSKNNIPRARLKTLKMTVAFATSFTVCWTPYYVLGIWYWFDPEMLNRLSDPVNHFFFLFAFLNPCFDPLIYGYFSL
Description: Human GnRH receptor functional assay (intracellular calcium release). It is filed as cell-based. The note with it: CHO-K1 cells expressing human GnRH receptors; block of GnRH (EC80)-induced calcium release; 20 min preincubation. Here is the method:
Human GnRH Receptor Functional Assay
GnRH-receptor antagonists may be functionally assessed by measurement of change in intracellular calcium levels induced by Gαq mediated increase in IP3 levels. The ability of compounds to block the intracellular release of calcium by GnRH in CHO-K1 cells expressing human GnRH receptors is determined as a measure of the compound's antagonist activity in vitro. Approximately 30,000 cells per assay well (half well 96 well assay plate—Corning) are seeded in normal culture medium. Twenty four hours after seeding the cells are loaded with a calcium sensitive fluorescent dye by replacing the culture medium with assay buffer (1×Hanks buffered saline, 25 mM HEPES, 0.1% w/v fatty acid free BSA, pH7.4) containing 2.5 mM probenecid and 1×Calcium Plus reagent (Molecular) Devices. Cells are incubated at 37° C. for 1 hour to allow for dye uptake. […] After incubation with test compounds the assay plate is placed in a Flexstation II (Molecular Devices) and GnRH is added at the determined EC80 concentration (final). Ligand-dependent changes in intracellular calcium levels are determined by measuring changes in fluorescence of the dye at […] following excitation at 485 nm. Percentage inhibition curves are plotted using 4-parameter fit algorithm and IC50 values calculated for each compound.
In general terms: Calcium flux is commonly read through the fluorescence of an indicator in the cells.

Data on one molecule can be found in patent US20080261918A1, “Silicon Compounds and Their Use” (priority 2003, published 2008).

`COc1nc(N2CCC(N(C)C)C2)nc(OC)c1NC(=O)c1ccc(Oc2cc([Si](C)(C)C)ccc2C)o1` (stereo not shown) [Example 2, N-(2-(3-(dimethylamino)pyrrolidin-1-yl)-4,6-dimethoxypyrimidin-5-yl)-5-(2-methyl-5-(trimethylsilyl)phenoxy)furan-2-carboxamide]: the IC50 amounted to 160 nM.

The IC50 is the concentration that inhibits the measured activity by half.
